In US10093683B2, “Factor XIa inhibitors” (Merck Sharp & Dohme Corp., priority 2014, dated 2018):
pKi: −log10 of the molar value. Where two headings read alike, the source gives them in different places.

Columns and labels:
human Factor XIa = human Factor XIa (Homo sapiens (Human), UniProt P03951); assay: Factor XIa Assay; type: biochemical; details: read-out: FXIa Ki
Method in brief: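 Purified human FXIa (40 pM final) hydrolysing fluorogenic Z-Gly-Pro-Arg-AFC (100 μM) in 50 mM HEPES pH 7.4, 150 mM NaCl, 5 mM CaCl2, 0.1% PEG 8000, at room temperature or 37° C. Initial velocities measured after enzyme–inhibitor equilibration; Ki from Vo/Vi versus [I], assuming competitive inhibition.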

Human plasma kallikrein = Human plasma kallikrein (Homo sapiens (Human), UniProt P03952); assay: Kallikrein Assay; type: biochemical; details: purified Human plasma kallikrein 0.5 nM, Acetyl-K-P-R-AFC, pH 7.4; Ki from IC50 by Cheng Prusoff
Human plasma kallikrein, sequence (P03952 391-638): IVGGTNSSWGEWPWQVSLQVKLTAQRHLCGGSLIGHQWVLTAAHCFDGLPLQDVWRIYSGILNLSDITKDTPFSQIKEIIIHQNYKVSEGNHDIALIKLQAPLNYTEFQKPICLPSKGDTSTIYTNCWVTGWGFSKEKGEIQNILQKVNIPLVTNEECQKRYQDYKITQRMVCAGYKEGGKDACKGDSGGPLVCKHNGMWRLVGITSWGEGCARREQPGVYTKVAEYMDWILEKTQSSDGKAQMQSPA
Human plasma kallikrein, sequence (P03952 20-390 partner): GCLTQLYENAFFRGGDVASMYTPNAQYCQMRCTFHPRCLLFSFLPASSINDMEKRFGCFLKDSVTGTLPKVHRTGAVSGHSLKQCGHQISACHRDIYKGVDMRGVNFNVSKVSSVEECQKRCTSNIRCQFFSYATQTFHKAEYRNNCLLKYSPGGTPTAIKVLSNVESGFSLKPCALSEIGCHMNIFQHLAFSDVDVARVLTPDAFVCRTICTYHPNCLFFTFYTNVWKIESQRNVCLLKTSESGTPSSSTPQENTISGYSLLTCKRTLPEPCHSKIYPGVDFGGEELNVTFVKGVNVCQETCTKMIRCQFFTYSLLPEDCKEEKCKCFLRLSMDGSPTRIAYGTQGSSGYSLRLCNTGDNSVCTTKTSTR
Method in brief: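 Purified human plasma kallikrein (0.5 nM final) with Acetyl-K-P-R-AFC substrate ([…]) in 50 mM HEPES pH 7.4, 150 mM NaCl, 5 mM CaCl2, 0.1% PEG 8000, after enzyme-inhibitor equilibration. Fluorescence (405 ex/510 em) under linear conditions; IC50 from four-parameter fit, converted to Ki by Cheng-Prusoff.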

[1] = purified human Factor XIa 40 pM, Z-Gly-Pro-Arg-AFC 100 μM, pH 7.4

human Factor XIa, sequence (P03951 388-625): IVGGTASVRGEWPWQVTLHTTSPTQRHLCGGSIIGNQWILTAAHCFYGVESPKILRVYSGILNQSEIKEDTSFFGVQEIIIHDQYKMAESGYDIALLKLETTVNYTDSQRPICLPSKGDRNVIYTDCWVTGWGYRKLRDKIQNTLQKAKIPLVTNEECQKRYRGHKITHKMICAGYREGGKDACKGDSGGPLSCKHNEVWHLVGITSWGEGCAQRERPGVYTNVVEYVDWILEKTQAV
human Factor XIa, sequence (P03951 19-387 partner): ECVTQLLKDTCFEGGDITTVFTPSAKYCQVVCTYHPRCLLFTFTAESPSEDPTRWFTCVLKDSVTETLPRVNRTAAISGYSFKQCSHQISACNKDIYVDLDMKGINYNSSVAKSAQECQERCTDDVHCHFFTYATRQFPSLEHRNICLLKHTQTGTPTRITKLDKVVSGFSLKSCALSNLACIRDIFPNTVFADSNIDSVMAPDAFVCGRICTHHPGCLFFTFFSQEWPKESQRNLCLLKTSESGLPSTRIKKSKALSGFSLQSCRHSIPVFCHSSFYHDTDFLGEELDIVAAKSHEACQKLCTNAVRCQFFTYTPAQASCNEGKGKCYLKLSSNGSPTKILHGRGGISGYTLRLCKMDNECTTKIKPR

Row | SMILES | pKi (human Factor XIa; [1]) | pKi (Human plasma kallikrein) | pKi (human Factor XIa)
1 | COC(=O)Nc1ccc(C(=O)N[C@@H](CO)C(=O)N2CCC[C@@]3(C2)OC(=O)Nc2ccc(Cl)cc23)cc1 [Example 38, methyl (4-(((S)-1-((R)-6-chloro-2-oxo-1,2-dihydrospiro[benzo[d][1,3]oxazine-4,3′-piperidin]-1′-yl)-3-hydroxy-1-oxopropan-2-yl)carbamoyl)phenyl)carbamate] | 7.30 | 8.02 | –
2 | COC(=O)Nc1ccc(C(=O)N[C@@H](Cc2ccccc2)C(=O)N2CCCC3(C2)OC(=O)Nc2ccc(Cl)c(F)c23)cc1 (stereo partly drawn) [Example 13, methyl (4-(((2S)-1-(6-chloro-5-fluoro-2-oxo-1,2-dihydrospiro[benzo[d][1,3]oxazine-4,3′-piperidin]-1′-yl)-1-oxo-3-phenylpropan-2-yl)carbamoyl)phenyl)carbamate] | 8.74 | 8.85 | –
3 | COC(=O)Nc1ccc(C(=O)NC(C[C@H]2CCCO2)C(=O)N2CCC[C@@]3(C2)OC(=O)Nc2ccc(Cl)c(F)c23)cc1 (single isomer, unassigned) [Example 117A] | 7.73 | 7.97 | –
4 | Nc1n[nH]c2cc(C(=O)N[C@@H](CC(=O)N3CCC3)C(=O)N3CCC[C@@]4(C3)OC(=O)Nc3ccc(Cl)cc34)ccc12 [Example 266] | – | 8.91 | 8.42
5 | COC(=O)Nc1ccc(C(=O)N[C@@H](CC2CCCCC2)C(=O)N2CCC[C@@]3(C2)OC(=O)Nc2ccc(Cl)cc23)cc1 [Example 72, methyl (4-(((S)-1-((R)-6-chloro-2-oxo-1,2-dihydrospiro[benzo[d][1,3]oxazine-4,3′-piperidin]-1′-yl)-3-cyclohexyl-1-oxopropan-2-yl)carbamoyl)phenyl)carbamate] | 8.45 | 7.75 | –
6 | CNC(=O)Nc1ccc(C(=O)N[C@@H](Cc2ccccc2)C(=O)N2CCC3(C2)OC(=O)Nc2ccc(Cl)cc23)cc1 (stereo partly drawn) [Example 189, N-((2S)-1-(6-chloro-2-oxo-1,2-dihydrospiro[benzo[d][1,3]oxazine-4,3′-pyrrolidin]-1′-yl)-1-oxo-3-phenylpropan-2-yl)-4-(3-methylureido)benzamide] | – | 7.29 | 7.75
7 | O=C1Nc2ccc(Cl)c(F)c2[C@@]2(CCCN(C(=O)[C@H](CC3CC3)NC(=O)c3ccc(-c4ncc[nH]4)s3)C2)O1 [Example 237] | – | 9.02 | 8.23
8 | COCCOC(=O)Nc1ccc(C(=O)N[C@@H](Cc2ccccc2)C(=O)N2CCC3(C2)OC(=O)Nc2ccc(Cl)cc23)cc1 (stereo partly drawn) [Example 164, 2-methoxyethyl (4-(((2S)-1-(6-chloro-2-oxo-1,2-dihydrospiro[benzo[d][1,3]oxazine-4,3′-pyrrolidin]-1′-yl)-1-oxo-3-phenylpropan-2-yl)carbamoyl)phenyl)carbamate] | – | 7.44 | 8.03
9 | COC(=O)Nc1ccc(C(=O)N[C@@H](Cc2ccc(-c3cc[nH]c3)cc2)C(=O)N2CC[C@@]3(C2)OC(=O)Nc2ccc(Cl)cc23)cc1 [Example 79, methyl (4-(((S)-3-(4-(1H-pyrrol-3-yl)phenyl)-1-((R)-6-chloro-2-oxo-1,2-dihydrospiro[benzo[d][1,3]oxazine-4,3′-pyrrolidin]-1′-yl)-1-oxopropan-2-yl)carbamoyl)phenyl)carbamate] | 8.00 | 7.84 | –
10 | COC(=O)Nc1ccc(C(=O)N[C@@H](Cc2ccc(OC)cn2)C(=O)N2CCC[C@@]3(C2)OC(=O)Nc2ccc(Cl)c(F)c23)cc1 [Example 75, methyl (4-(((S)-1-((R)-6-chloro-5-fluoro-2-oxo-1,2-dihydrospiro[benzo[d][1,3]oxazine-4,3′-piperidin]-1′-yl)-3-(5-methoxypyridin-2-yl)-1-oxopropan-2-yl)carbamoyl)phenyl)carbamate] | 8.72 | 8.81 | –
11 | COC(=O)Nc1ccc(C(=O)N[C@@H](Cn2cccn2)C(=O)N2CCC3(C2)OC(=O)Nc2ccc(Cl)cc23)cc1 (stereo partly drawn) [Example 31, methyl (4-(((2S)-1-(6-chloro-2-oxo-1,2-dihydrospiro[benzo[d][1,3]oxazine-4,3′-pyrrolidin]-1′-yl)-1-oxo-3-(1H-pyrazol-1-yl)propan-2-yl)carbamoyl)phenyl)carbamate] | 7.59 | 7.11 | –
12 | Cc1ncc(C(=O)N[C@@H](Cc2ccccc2)C(=O)N2CCC3(C2)OC(=O)Nc2ccc(Cl)cc23)cn1 (stereo partly drawn) [Example 144] | – | 8.11 | 5.30
13 | COC(=O)Nc1ccc(C(=O)N[C@@H](CC2CC2)C(=O)N2CC[C@@]3(C2)OC(=O)Nc2ccc(Cl)c(F)c23)cc1 [Example 61, methyl (4-(((S)-1-((R)-6-chloro-5-fluoro-2-oxo-1,2-dihydrospiro[benzo[d][1,3]oxazine-4,3′-pyrrolidin]-1′-yl)-3-cyclopropyl-1-oxopropan-2-yl)carbamoyl)phenyl)carbamate] | 7.90 | 7.95 | –
14 | O=C1COc2cc(C(=O)N[C@@H](Cc3ccccc3)C(=O)N3CCC4(C3)OC(=O)Nc3ccc(Cl)cc34)ccc2N1 (stereo partly drawn) [Example 171] | – | 7.24 | 7.66
15 | COC(=O)Nc1ccc(C(=O)N[C@@H](Cc2ccc3ccccc3c2)C(=O)N2CCC3(C2)OC(=O)Nc2ccc(Cl)cc23)cc1 (stereo partly drawn) [Example 50, methyl (4-(((2S)-1-(6-chloro-2-oxo-1,2-dihydrospiro[benzo[d][1,3]oxazine-4,3′-pyrrolidin]-1′-yl)-3-(naphthalen-2-yl)-1-oxopropan-2-yl)carbamoyl)phenyl)carbamate] | 7.47 | 6.64 | –
16 | O=C1Nc2ccc(Cl)c(F)c2[C@@]2(CCCN(C(=O)C(Cc3ccccc3)c3ncc(-c4ccc(C(=O)O)s4)[nH]3)C2)O1 (stereo partly drawn) [Example 123, 5-(2-(1-((R)-6-chloro-5-fluoro-2-oxo-1,2-dihydrospiro[benzo[d][1,3]oxazine-4,3′-piperidin]-1′-yl)-1-oxo-3-phenylpropan-2-yl)-1H-imidazol-5-yl)thiophene-2-carboxylic acid] | 7.82 | 8.33 | –
17 | O=C1Nc2ccc(Cl)c(F)c2[C@@]2(CCCN(C(=O)[C@H](Cc3ccccc3)NC(=O)c3ccc(B(O)O)s3)C2)O1 [Example 233] | – | 8.61 | 8.10
18 | Nc1cc(C(=O)N[C@@H](Cc2ccccc2)C(=O)N2CCC3(C2)OC(=O)Nc2ccc(Cl)cc23)cc2[nH]cnc12 (stereo partly drawn) [Example 260] | – | 6.89 | 7.11
19 | COC(=O)Nc1ccc(C(=O)N[C@@H](Cc2cscn2)C(=O)N2CCC3(C2)OC(=O)Nc2ccc(Cl)cc23)cc1 (stereo partly drawn) [Example 40, methyl (4-(((2S)-1-(6-chloro-2-oxo-1,2-dihydrospiro[benzo[d][1,3]oxazine-4,3′-pyrrolidin]-1′-yl)-1-oxo-3-(thiazol-4-yl)propan-2-yl)carbamoyl)phenyl)carbamate] | 7.28 | 6.93 | –
20 | COC(=O)Nc1ccc(C(=O)N[C@@H](Cc2ccccc2)C(=O)N2CCC[C@@]3(C2)OC(=O)Nc2ccc(Cl)cc23)cc1 [Example 3b, methyl (4-(((S)-1-((R)-6-chloro-2-oxo-1,2-dihydrospiro[benzo[d][1,3]oxazine-4,3′-piperidin]-1′-yl)-1-oxo-3-phenylpropan-2-yl)carbamoyl)phenyl)carbamate] | 8.82 | 8.81 | –
21 | O=C1Nc2ccc(Cl)c(F)c2[C@@]2(CCCN(C(=O)[C@H](Cc3ccc(F)cc3)NC(=O)c3cc(F)c(C(=O)C(=O)O)s3)C2)O1 [Example 267, 2-(5-(((S)-1-((R)-6-chloro-5-fluoro-2-oxo-1,2-dihydrospiro[benzo[d][1,3]oxazine-4,3′-piperidin]-1′-yl)-3-(4-fluorophenyl)-1-oxopropan-2-yl)carbamoyl)-3-fluorothiophen-2-yl)-2-oxoacetic acid] | – | 9.54 | 9.15
22 | Nc1n[nH]c2cc(C(=O)N[C@@H](Cc3ccccc3)C(=O)N3CCC[C@@]4(C3)OC(=O)Nc3ccc(Cl)cc34)ccc12 [Example 197] | – | 8.89 | 9.21
23 | COC(=O)Nc1ccc(C(=O)N[C@@H](CC(C)(C)O)C(=O)N2CC[C@@]3(C2)OC(=O)Nc2ccc(Cl)cc23)cc1 [Example 111, methyl (4-(((S)-1-((R)-6-chloro-2-oxo-1,2-dihydrospiro[benzo[d][1,3]oxazine-4,3′-pyrrolidin]-1′-yl)-4-hydroxy-4-methyl-1-oxopentan-2-yl)carbamoyl)phenyl)carbamate] | 7.92 | 7.12 | –
24 | COC(=O)Nc1ccc(C(=O)N[C@@H](CC2CC2(F)F)C(=O)N2CCC[C@@]3(C2)OC(=O)Nc2ccc(Cl)c(F)c23)cc1 (single isomer, unassigned) [Example 67B] | 8.10 | 8.74 | –
25 | COC(=O)Nc1ccc(C(=O)N[C@@H](CC(=O)N2CC3CCCC32)C(=O)N2CCC[C@@]3(C2)OC(=O)Nc2ccc(Cl)cc23)cc1 (stereo partly drawn) [Example 94, methyl (4-(((2S)-4-(6-azabicyclo[3.2.0]heptan-6-yl)-1-((R)-6-chloro-2-oxo-1,2-dihydrospiro[benzo[d][1,3]oxazine-4,3′-piperidin]-1′-yl)-1,4-dioxobutan-2-yl)carbamoyl)phenyl)carbamate] | 8.26 | 8.85 | –
26 | CC(C)(O)C[C@H](NC(=O)c1ccc2c(N)n[nH]c2c1)C(=O)N1CCC[C@@]2(C1)OC(=O)Nc1ccc(Cl)cc12 [Example 269] | – | 8.52 | 8.30
27 | COC(=O)Nc1ccc(C(=O)N[C@@H](Cc2ccc(F)cc2)C(=O)N2CC[C@@]3(C2)OC(=O)Nc2ccc(Cl)cc23)cc1 [Example 22, methyl (4-(((S)-1-((R)-6-chloro-2-oxo-1,2-dihydrospiro[benzo[d][1,3]oxazine-4,3′-pyrrolidin]-1′-yl)-3-(4-fluorophenyl)-1-oxopropan-2-yl)carbamoyl)phenyl)carbamate] | 8.28 | 7.66 | –
